Columns and labels:
Type in all cases: in vivo, human
[1] = system: impulsive aggression in ADHD patients; assay: Phase IIb study, R-MOAS score change from baseline
Protocol: (§1) A Phase IIb study was conducted for the treatment of impulsive aggression in Attention Deficit and Hyperactivity Disorder (ADHD) patients with a pharmaceutical preparation of molindone. The study was a multi-center randomized, double-blind, placebo controlled clinical trial in children 6 to 12 diagnosed with ADHD and characterized by impulsive aggression that is not controlled by optimal stimulant and psychosocial treatment. It was a dose finding study with the primary objective of identifying an effective dose range in children of different weight or age groups. The children were divided into two […] (i.e., less than 30 kg and greater than or equal to 30 kg). The low, medium, and high doses for the under 30 kg group were 12 mg, 24 mg, and 36 mg, respectively. Similarly, the low, medium, and high doses for the 30 kg and over group were 18 mg, 36 mg, and 54 mg, respectively. Three doses of molindone were studied with the primary endpoints of (a) effect in reducing impulsive aggression (measured with change in the score of the Retrospective-Modified Overt Aggression Scale “R-MOAS” at the end of the study from the baseline), and (b) rate of remission of aggression, after at least three weeks of treatment. Secondary objectives included safety and tolerability of molindone as well as the effect on the Clinical Global Impression and the Oppositional […] Disorder subscale score of the SNAP-IV Questionnaire and other endpoints [e.g., SNAP, clinical labs, AEs, etc.]. Patients who completed the study were offered the opportunity to continue into an open-label phase of six months duration.

[2] = system: impulsive aggression in ADHD patients; assay: Phase IIb study, rate of remission of aggression (R-MOAS ≦ 10); conditions: for Remission Rate at End of Study (Visit 10): R-MOAS ≦ 10, LOCF
Protocol: as §1

[3] = Phase IIb study, safety and tolerability; conditions: throughout the study, across all doses
Protocol: A Phase IIb study was conducted for the treatment of impulsive aggression in Attention Deficit and Hyperactivity Disorder (ADHD) patients with a pharmaceutical preparation of molindone. The study was a multi-center randomized, double-blind, placebo controlled clinical trial in children 6 to 12 diagnosed with ADHD and characterized by impulsive aggression that is not controlled by optimal stimulant and psychosocial treatment. It was a dose finding study with the primary objective of identifying an effective dose range in children of different weight or age groups. The children were divided into two […] (i.e., less than 30 kg and greater than or equal to 30 kg). The low, medium, and high doses for the under 30 kg group were 12 mg, 24 mg, and 36 mg, respectively. Similarly, the low, medium, and high doses for the 30 kg and over group were 18 mg, 36 mg, and 54 mg, respectively. Three doses of molindone were studied with the primary endpoints of (a) effect in reducing impulsive aggression (measured with change in the score of the Retrospective-Modified Overt Aggression Scale “R-MOAS” at the end of the study from the baseline), and (b) rate of remission of aggression, after at least three weeks of treatment. Secondary objectives included safety and tolerability of molindone as well as the effect on the Clinical Global Impression and the Oppositional […] […]

CCc1c(C)[nH]c2c1C(=O)C(CN1CCOCC1)CC2 (stereo not drawn) [molindone]
efficacy across any of the measures ([1]; 30 kg or more, high dose (54 mg)): did not show efficacy
R-MOAS (LOCF) Change from Baseline, mean (SD) ([1]; <30 kg, high dose (36 mg)): −16.4 (36.90)
R-MOAS (LOCF) End of treatment (visit 10), mean (SD) ([1]; <30 kg, high dose (36 mg)): 32.2 (24.14)
R-MOAS (LOCF) Change from Baseline, mean (SD) ([1]; <30 kg, low dose (12 mg)): −25.1 (23.00)
R-MOAS (LOCF) End of treatment (visit 10), mean (SD) ([1]; <30 kg, low dose (12 mg)): 34.2 (27.29)
R-MOAS (LOCF) Change from Baseline, mean (SD) ([1]; <30 kg, medium dose (24 mg)): −30.7 (31.22)
R-MOAS (LOCF) End of treatment (visit 10), mean (SD) ([1]; <30 kg, medium dose (24 mg)): 38.5 (36.70)
statistical significance vs placebo on the R-MOAS endpoint ([1]; patients under 30 kg, the studied doses (12, 24, 36 mg)): did not show statistical significance
R-MOAS (LOCF) Change from Baseline, mean (SD) ([1]; ≧30 kg, high dose (54 mg)): −23.0 (27.55)
R-MOAS (LOCF) End of treatment (visit 10), mean (SD) ([1]; ≧30 kg, high dose (54 mg)): 28.8 (40.60)
R-MOAS (LOCF) Change from Baseline, mean (SD) ([1]; ≧30 kg, low dose (18 mg)): −41.7(32.48)
R-MOAS (LOCF) End of treatment (visit 10), mean (SD) ([1]; ≧30 kg, low dose (18 mg)): 9.8 (13.01)
R-MOAS (LOCF) Change from Baseline, mean (SD) ([1]; ≧30 kg, medium dose (36 mg)): −40.9(34.84)
R-MOAS (LOCF) End of treatment (visit 10), mean (SD) ([1]; ≧30 kg, medium dose (36 mg)): 13.5(15.71)
Remission, Treatment vs Placebo Odds Ratio ([2]; <30 kg, high dose (36 mg)): 0.62
Remission, Treatment vs Placebo Odds Ratio ([2]; <30 kg, low dose (12 mg)): 1.53
Remission, Treatment vs Placebo Odds Ratio ([2]; <30 kg, medium dose (24 mg)): 1.36
Remission Rate at End of Study (Visit 10) ([2]; <30 kg, high dose (36 mg)): 3 (21.4) n(%)
Remission Rate at End of Study (Visit 10) ([2]; <30 kg, low dose (12 mg)): 4 (33.3) n(%)
Remission Rate at End of Study (Visit 10) ([2]; <30 kg, medium dose (24 mg)): 4 (26.7) n(%)
Remission Rate at End of Study (Visit 10) ([2]; ≧30 kg, high dose (54 mg)): 7 (41.2) n(%)
Remission Rate at End of Study (Visit 10) ([2]; ≧30 kg, low dose (18 mg)): 10 (66.7) n(%)
Remission Rate at End of Study (Visit 10) ([2]; ≧30 kg, medium dose (36 mg)): 8 (53.3) n(%)
Remission, Treatment vs Placebo Odds Ratio ([2]; ≧30 kg, high dose (54 mg)): 4.07
Remission, Treatment vs Placebo Odds Ratio ([2]; ≧30 kg, low dose (18 mg)): 12.08
Remission, Treatment vs Placebo Odds Ratio ([2]; ≧30 kg, medium dose (36 mg)): 7.07
tolerability [3]: well tolerated
